Test results reported in ChEMBL document CHEMBL1201862, “PubChem BioAssay data set” (2004).
Values belong to the compound of their own block, whether it stands above or below them. The source made the active and inactive calls.

Key:
[1] = molecular target: T1, DNA repair protein RAD52 homolog (Homo sapiens, UniProt P43351); format: functional, biochemical
T1 sequence (P43351 whole entry): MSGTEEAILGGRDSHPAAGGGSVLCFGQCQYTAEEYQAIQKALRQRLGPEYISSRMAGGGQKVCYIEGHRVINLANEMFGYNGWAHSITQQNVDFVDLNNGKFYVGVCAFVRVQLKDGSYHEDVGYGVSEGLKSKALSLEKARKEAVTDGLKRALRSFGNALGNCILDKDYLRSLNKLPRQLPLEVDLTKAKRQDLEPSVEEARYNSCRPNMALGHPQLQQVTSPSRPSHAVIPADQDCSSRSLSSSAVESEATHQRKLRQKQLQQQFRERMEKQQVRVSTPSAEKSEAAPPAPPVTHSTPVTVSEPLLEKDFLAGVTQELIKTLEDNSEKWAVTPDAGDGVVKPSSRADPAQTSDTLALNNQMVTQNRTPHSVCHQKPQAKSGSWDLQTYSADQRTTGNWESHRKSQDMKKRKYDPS

[2] = molecular target: T2, DNA repair and recombination protein RAD54-like (Homo sapiens, UniProt Q92698); test: RAD54 Holliday junction migration blockers – biochemical, fluorescence, cherry-picked samples, dose series, confirmation (AID 651657); format: functional
T2 sequence (Q92698 whole entry): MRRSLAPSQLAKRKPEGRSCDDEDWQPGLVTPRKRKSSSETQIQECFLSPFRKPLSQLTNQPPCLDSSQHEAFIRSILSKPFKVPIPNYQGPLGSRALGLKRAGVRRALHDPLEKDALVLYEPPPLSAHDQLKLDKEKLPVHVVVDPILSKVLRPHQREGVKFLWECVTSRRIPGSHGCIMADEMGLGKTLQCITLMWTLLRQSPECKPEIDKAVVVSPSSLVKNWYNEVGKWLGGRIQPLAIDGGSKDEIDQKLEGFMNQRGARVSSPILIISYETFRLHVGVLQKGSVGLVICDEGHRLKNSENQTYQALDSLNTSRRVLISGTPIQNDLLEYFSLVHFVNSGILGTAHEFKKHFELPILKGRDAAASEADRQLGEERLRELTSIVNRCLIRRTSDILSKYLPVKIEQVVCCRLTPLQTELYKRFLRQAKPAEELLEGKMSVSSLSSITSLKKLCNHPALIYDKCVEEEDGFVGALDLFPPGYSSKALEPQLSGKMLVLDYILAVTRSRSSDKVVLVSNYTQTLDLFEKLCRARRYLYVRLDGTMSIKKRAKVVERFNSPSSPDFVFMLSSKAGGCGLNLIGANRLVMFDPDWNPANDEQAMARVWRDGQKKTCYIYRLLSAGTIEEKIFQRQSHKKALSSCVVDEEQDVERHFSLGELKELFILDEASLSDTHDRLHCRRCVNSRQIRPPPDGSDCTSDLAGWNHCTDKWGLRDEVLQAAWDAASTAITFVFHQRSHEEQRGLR

[3] = A549 cell cytotoxicity, dose response, cytotoxicity control, plate reader, cherry-pick, antagonist series (AID 743412); format: functional, cell-based
[4] = viability loss in HEK293 cells – cell-based, plate reader, cherry-picked samples, cytotoxicity control, dose response (AID 743446); format: functional
[5] = blockade of melanocortin 4 receptor signaling – cell-based, plate reader, cherry pick, counter-screen for LGR2 antagonist project, dose response (AID 743444); format: functional;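 also: transfected HEK 293 cells stimulated with alpha-MSH peptide; potency of inhibitors of the alpha-MSH evoked signal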
[6] = blockers of bursicon-stimulated LGR2 cAMP reporter – cell-based, HEK293, CRE-luciferase reporter, cherry pick, set 2, dose response (AID 743343); format: functional;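 also: transfected cells were stimulated with diluted bursicon conditioned medium after compound addition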
[7] = toxicity toward HepG2 liver cells – cell-based, plate reader, cherry-pick, antagonist series, cytotoxicity control, dose response (AID 743416); format: functional
cells [8] = format: functional, cell-based
cells [9] = format: functional, cell-based; remark: listed apart in the source
[10] = growth inhibition of yeast DHODH-expressing 3D7 parasites – SYBR Green, dry powder samples, dose response (AID 1159570); format: functional, cell-based;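 also: parasite growth measured after 72 hours of compound exposure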
[11] = P. falciparum Dd2 growth inhibitors, dose response, SYBR Green, cherry-picked samples (AID 1159567); format: functional, cell-based
[12] = Dd2 malaria parasite growth inhibition potency – SYBR Green, dry powder samples, dose response (AID 1159566); format: functional, cell-based;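 also: potency for growth inhibition with lower SYBR green DNA signal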
[13] = growth inhibition of PfATP4-mutant resistant parasites – NITD609-resistant line, SYBR Green, dry powder, dose response (AID 1159571); format: functional, cell-based;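 also: parasites synchronized at ring stage by sorbitol before testing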
[14] = toxicity to human hepatoma HepG2 cells – cell-based, cherry-picked samples, cytotoxicity control, dose response (AID 1159577); format: functional
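For EC50 in this document: agonist potency from rise in intracellular calcium fluorescence.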
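For IC50 in this document: potency for blocking the ATP-evoked calcium rise so compounds act as antagonists.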

AC50 [1]: 3.07 µM (active) | AC50 [2]: 8.57 µM (active)
Compound: COc1cc(-c2cnc3c(NC=O)cc(-c4cccc(C(=O)NCCN(C)C)c4)cn23)cc(OC)c1OC

Compound: N#C[C@@H]1[C@H](c2ccc(C#Cc3ccccc3F)cc2)[C@H](CO)N1C(=O)C1CCCCC1
AC50 [3]: 17.6 µM (active) | AC50 [4]: 14.3 µM (active) | AC50 [5]: 27.5 µM (active) | AC50 [6]: 20 µM (active) | AC50 [7]: 2.67 µM (active)

Compound: O=C(Cn1cnc2ccccc21)N/N=C/c1cccs1
EC50 (cells [8]): > 29.9 µM (inactive) | IC50 (cells [9]): > 29.9 µM (inactive)

Compound: O=C(CNC(=O)c1cccc(F)c1)N/N=C/C=C/c1ccccc1
EC50 (cells [8]): > 29.9 µM (inactive) | IC50 (cells [9]): > 29.9 µM (inactive)

Compound: C[C@H](CO)N1C[C@H](C)[C@@H](CN(C)C(=O)Nc2cccc3ccccc23)Oc2ccc(NC(=O)Nc3ccc(C(F)(F)F)cc3)cc2C1=O
AC50 [10]: 1.37 µM (active) | AC50 [11]: 1.81 µM (active) | AC50 [12]: 1.44 µM (active) | AC50 [13]: 1.21 µM (active)

Compound: COc1ccc2c3c(n(C)c2c1)[C@@H](CO)N(C(=O)C1CCCC1)CC31CCN(C(=O)Nc2cccc(F)c2)CC1
AC50 [10]: 0.0947 µM (active) | AC50 [11]: 0.672 µM (active) | AC50 [12]: 0.418 µM (active) | AC50 [13]: 0.239 µM (active)

Compound: C[C@H](CO)N1C[C@H](C)[C@H](CN(C)C(=O)c2cc(Cl)cc(Cl)c2)OCc2ccccc2-c2c(n(C)c3ccccc23)C1=O
AC50 [11]: 4.11 µM (active) | AC50 [14]: > 39 µM (inactive)

Compound: CC(C)CC#Cc1ccc([C@H]2[C@H](CO)N3CCCCN(S(=O)(=O)Cc4ccccc4)C[C@@H]23)cc1
AC50 [11]: 4.8 µM (active) | AC50 [14]: 9.45 µM (active)

Compound: C[C@@H]1CN([C@H](C)CO)C(=O)c2ccccc2-c2ccccc2CO[C@@H]1CN(C)Cc1ccccc1C(F)(F)F
AC50 [11]: 2.79 µM (active) | AC50 [14]: 15.7 µM (active)
